Measured values reported in patent US9028855B2, “Plant additives and uses thereof to modulate the synthesis of membrane glycerolipids in planta” (Commissariat a l'Energie Atomique et aux Energies …, priority 2009, dated 2015).

Experiments:
Medicago truncatula = assay: Root growth of Medicago truncatula in phosphate deficient medium; format: in vivo; conditions: phosphate 10 μM, MC2 5 μM, 10 days, FIG. 14
Experimental: Medicago truncatula seeds were surface-sterilized as follow: soaking in concentrated sulphuric acid for 10 min, rinsing three times with sterile distilled water, soaking in 10% bleach/0.1% Tween 20 solution for 10 min with gentle agitation and finally by rinsing seeds three times with sterile distilled water. Seeds were germinated 48 h in dark. […] In the phosphate (Pi) deficient medium, NaCl (0.5 mM) was used to replace the equivalent amount of sodium provided by NaH2PO4.). Plants were maintained 10 days under a 14 h light/10 h 150 μm^−2s^−1 dark regime with a temperature of 22/18° C. for light/dark phases in a phytotron.

iron transporter IRT1 = assay: IRT1::GUS, follow-up of the expression of the gene encoding the iron transporter IRT1 (GUS staining); format: in vivo, A. thaliana; conditions: compound added to the cultivation medium; MC2 5 μM, FIG. 13
Experimental: pIRT1:GUS cells were obtained as described by Vert et al. (Vert et al., 2002) and carry a irt1 promoter-GUS fusion. […] Plants were examined for GUS activity by dipping the samples in a GUS staining solution (50 mM sodium phosphate buffer pH 7.0; 0.01% Triton X-100, 1 mM K3Fe(CN)6, 1 mM K4Fe(CN)6, 1 mg/ml 5-dromo-4-chloro-3-indolyl (3-D-GLUCURONIDE (X-Gluc A) and incubated at 37° C. over-night. After staining, the plants were fixed 2 hours in 50 mM sodium phosphate buffer pH 7.0; 1% glutaraldehyde; 4% formaldehyde.

PHT1;4 = assay: Chemical genetic screen, pPHT1;4::GUS line (GUS activity in root tip); format: in vivo, A. thaliana; conditions: plant grown on high phosphate medium (500 μM), FIG. 2
Experimental: pPHT1;4::GUS (DCJ 10) cell line is as described by Misson et al. (Misson et al., 2004). This cell line expresses the GUS reporter under the control of the promoter of the pht1;4 gene.
Plants were examined for GUS activity by dipping the samples in a GUS staining solution (50 mM sodium phosphate buffer pH 7.0; 0.01% Triton X-100, 1 mM K3Fe(CN)6, 1 mM K4Fe(CN)6, 1 mg/ml 5-dromo-4-chloro-3-indolyl (3-D-GLUCURONIDE (X-Gluc A) and incubated at 37° C. over-night. After staining, the plants were fixed 2 hours in 50 mM sodium phosphate buffer pH 7.0; 1% glutaraldehyde; 4% formaldehyde.
Chemical genetic screen was based on PHT1;4 expression using the line pPHT1;4::GUS (Misson et al., 2004). […] The formula of MC2 is the following: […]

Acid phosphatase = Acid phosphatase activity in root extract (spectrophotometric); format: in vivo; conditions: 10 days old plants, high phosphate medium + 5 μM MC2, FIG. 4
Experimental: FIG. 4: Acid phosphatase activity was assayed spectrophotometrically in root extract from 10 days old plants grown in high phosphate medium, in low phosphate medium or in high phosphate medium supplied with 5 μM of MC2. Values represent the mean of 3 experiments±SD.
In response to phosphate deficiency, plants are able to secrete phosphatase in soil in order to remobilize phosphate from soil.

wild type seedlings = assay: Starch accumulation (Lugol/iodine staining); format: in vivo, A. thaliana; conditions: MC2 5 μM; same response as phosphate deficiency (starch strongly accumulated), FIG. 7
Experimental: Leaves were immersed in ethanol (96%) for 6 h to remove pigment and stained with Lugol solution (Fluka) for 30 min to make the starch granules visible.

Cc1cccc(NC=C2C(=O)CC(C)(C)CC2=O)n1 [MC2]
growth of roots in a Pi deficient medium (Medicago truncatula): improved | IRT1 expression (in words) (iron transporter IRT1): inhibits IRT1 expression | expression of PHT1;4 (pPHT1;4::GUS) (PHT1;4): induce the expression of PHT1;4 | phosphatase activity (Acid phosphatase): inducing phosphatase activity | starch accumulation (in words) (wild type seedlings): same response
